Source: ChEMBL document CHEMBL1127929, “The synthesis and serine -lactamase inhibitory activity of some phosphonamidate analogues of dipeptides” (1994)
Values after ≈ are worked out from the molar mass of the structure shown.

Target: Beta-lactamase (Enterobacter cloacae) (UniProt P05364)
Assay: Minimum inhibitory concentration of 10 ug/ml compound in combination with amoxycillin against Enterobacter cloacae N-1 organism
Assay type: functional

Sequence of Beta-lactamase (Enterobacter cloacae) (P05364 21-381 limits assumed): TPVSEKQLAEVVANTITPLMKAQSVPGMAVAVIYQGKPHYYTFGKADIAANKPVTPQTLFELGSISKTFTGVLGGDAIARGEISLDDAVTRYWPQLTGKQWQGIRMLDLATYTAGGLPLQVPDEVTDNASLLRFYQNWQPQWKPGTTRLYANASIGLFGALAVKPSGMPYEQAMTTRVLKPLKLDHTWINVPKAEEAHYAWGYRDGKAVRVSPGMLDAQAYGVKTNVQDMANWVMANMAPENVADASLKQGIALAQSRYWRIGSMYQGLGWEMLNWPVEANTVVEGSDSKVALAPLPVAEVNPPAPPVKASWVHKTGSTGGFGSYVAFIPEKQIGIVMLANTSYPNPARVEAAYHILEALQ

Question: `CC1(C)S[C@@H]2[C@H](NC(=O)C(N)c3ccc(O)cc3)C(=O)N2[C@H]1C(=O)O.O=C(NCP(=O)(O)NC(C(=O)O)c1ccccc1)OCc1ccccc1` (stereo not given) was tested. Which MIC did it give?
Answer: 32 µg/mL

Question: With `CC1(C)S[C@@H]2[C@H](NC(=O)C(N)c3ccc(O)cc3)C(=O)N2[C@H]1C(=O)O.O=C(NCP(=O)(O)N[C@H](Cc1ccccc1)C(=O)O)OCc1ccccc1` as the compound, how does the MIC read?
Answer: 128 µg/mL

Question: For `CC1(C)S[C@@H]2[C@H](NC(=O)C(N)c3ccc(O)cc3)C(=O)N2[C@H]1C(=O)O.O=C(O)CCNP(=O)(O)CNC(=O)OCc1ccccc1` (stereo not given in full), which MIC is on record?
Answer: 44 µg/mL

Target: Beta-lactamase (Enterobacter cloacae) (UniProt P05364)
Assay: Minimum inhibitory concentration of 10 ug/ml compound in combination with amoxycillin against Enterobacter cloacae N-1 organism,
Assay type: functional

Question: Which MIC does the source give for `CC1(C)S[C@@H]2[C@H](NC(=O)C(N)c3ccc(O)cc3)C(=O)N2[C@H]1C(=O)O.O=C(O)CNP(=O)(O)CNC(=O)OCc1ccccc1` (stereo not given in full) here?
Answer: 32 µg/mL

Target: Beta-lactamase TEM (Escherichia coli) (UniProt P62593)
Sequence (P62593 whole entry): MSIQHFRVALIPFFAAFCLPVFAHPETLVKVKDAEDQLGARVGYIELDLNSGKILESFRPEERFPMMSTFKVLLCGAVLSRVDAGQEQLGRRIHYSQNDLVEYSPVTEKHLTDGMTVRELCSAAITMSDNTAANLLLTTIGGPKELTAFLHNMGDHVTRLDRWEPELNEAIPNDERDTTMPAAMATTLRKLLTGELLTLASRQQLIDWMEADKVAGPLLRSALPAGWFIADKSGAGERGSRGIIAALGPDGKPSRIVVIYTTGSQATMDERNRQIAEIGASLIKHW
Assay: Minimum inhibitory concentration of 4 ug/ml compound in combination with amoxycillin against Escherichia coli E96P organism
Assay type: functional

Question: With `CC1(C)S[C@@H]2[C@H](NC(=O)[C@H](N)c3ccc(O)cc3)C(=O)N2[C@H]1C(=O)O.O=C(O)[C@H]1/C(=C/CO)O[C@@H]2CC(=O)N21` [listing 1 of 2 here] as the compound, how does the MIC read?
Answer: 16 µg/mL

System: Staphylococcus aureus
Assay: Minimum inhibitory concentration of 4 ug/ml compound in combination with amoxycillin against Staphylococcus aureus MB9 organism
Assay type: functional

Question: How did the MIC turn out when `CC1(C)S[C@@H]2[C@H](NC(=O)[C@H](N)c3ccc(O)cc3)C(=O)N2[C@H]1C(=O)O.O=C(O)[C@H]1/C(=C/CO)O[C@@H]2CC(=O)N21` [listing 2 of 2 here] was run?
Answer: 0.12 µg/mL

System: Staphylococcus aureus
Assay: Minimum inhibitory concentration of 10 ug/ml compound in combination with amoxycillin against Staphylococcus aureus MB9 organism
Assay type: functional

Question: `CC1(C)S[C@@H]2[C@H](NC(=O)C(N)c3ccc(O)cc3)C(=O)N2[C@H]1C(=O)O.O=C([O-])CCNP(=O)([O-])CNC(=O)OCc1ccccc1.[Li+].[Li+]` (stereo not given in full) was tested. Which MIC did it give?
Answer: 32 µg/mL

Question: For `CC1(C)S[C@@H]2[C@H](NC(=O)C(N)c3ccc(O)cc3)C(=O)N2[C@H]1C(=O)O.O=C(NCP(=O)([O-])N[C@H](Cc1ccccc1)C(=O)[O-])OCc1ccccc1.[Li+].[Li+]`, which MIC is on record?
Answer: 64 µg/mL

Question: Which MIC does the source give for `CC1(C)S[C@@H]2[C@H](NC(=O)C(N)c3ccc(O)cc3)C(=O)N2[C@H]1C(=O)O.O=C([O-])CNP(=O)([O-])CNC(=O)OCc1ccccc1.[Li+].[Li+]` (stereo not given in full) here?
Answer: 64 µg/mL

Question: How did the MIC turn out when `CC1(C)S[C@@H]2[C@H](NC(=O)C(N)c3ccc(O)cc3)C(=O)N2[C@H]1C(=O)O.O=C(NCP(=O)([O-])NC(C(=O)[O-])c1ccccc1)OCc1ccccc1.[Li+].[Li+]` (stereo not given) was run?
Answer: 64 µg/mL

Question: `CC1(C)S[C@@H]2[C@H](NC(=O)C(N)c3ccc(O)cc3)C(=O)N2[C@H]1C(=O)O.O=C([O-])CC(NP(=O)([O-])CNC(=O)OCc1ccccc1)c1ccccc1.[Li+].[Li+]` (stereo not given) was tested. Which MIC did it give?
Answer: 8 µg/mL

Question: For `CC1(C)S[C@@H]2[C@H](NC(=O)C(N)c3ccc(O)cc3)C(=O)N2[C@H]1C(=O)O.O=C(NCP(=O)([O-])N[C@@H](Cc1ccccc1)C(=O)[O-])OCc1ccccc1.[Li+].[Li+]`, which MIC is on record?
Answer: 64 µg/mL

System: Staphylococcus aureus
Assay: Minimum inhibitory concentration against Staphylococcus aureus MB9 organism
Assay type: functional

Question: How did the MIC turn out when `CC1(C)S[C@@H]2[C@H](NC(=O)[C@H](N)c3ccc(O)cc3)C(=O)N2[C@H]1C(=O)O` [AMOXICILLIN] was run?
Answer: 256 µg/mL (≈ 701 µM)

Target: Beta-lactamase (Enterobacter cloacae) (UniProt P05364)
Description: Minimum inhibitory concentration of 4 ug/ml compound in combination with amoxycillin against Enterobacter cloacae N-1 organism

Question: With `CC1(C)S[C@@H]2[C@H](NC(=O)[C@H](N)c3ccc(O)cc3)C(=O)N2[C@H]1C(=O)O.O=C(O)[C@H]1/C(=C/CO)O[C@@H]2CC(=O)N21` [listing 1 of 2 here] as the compound, how does the MIC read?
Answer: 256 µg/mL

Target: Beta-lactamase (Enterobacter cloacae) (UniProt P05364)
Remark: another data set of the same source
Description: Minimum inhibitory concentration against Enterobacter cloacae N-1 organism

Question: `CC1(C)S[C@@H]2[C@H](NC(=O)[C@H](N)c3ccc(O)cc3)C(=O)N2[C@H]1C(=O)O` was tested. Which MIC did it give?
Answer: 256 µg/mL (≈ 701 µM)
